Test results published in patent US11332459B2 (TEIJIN PHARMA LIMITED, priority 2017, dated 2022).
Structures can show the parent of a compound that is named as a salt.

Biological target: T1, human TRPC6 (Homo sapiens, UniProt Q9Y210)
T1 construct: expressed in transfected cells
T1 sequence (Q9Y210 1-931): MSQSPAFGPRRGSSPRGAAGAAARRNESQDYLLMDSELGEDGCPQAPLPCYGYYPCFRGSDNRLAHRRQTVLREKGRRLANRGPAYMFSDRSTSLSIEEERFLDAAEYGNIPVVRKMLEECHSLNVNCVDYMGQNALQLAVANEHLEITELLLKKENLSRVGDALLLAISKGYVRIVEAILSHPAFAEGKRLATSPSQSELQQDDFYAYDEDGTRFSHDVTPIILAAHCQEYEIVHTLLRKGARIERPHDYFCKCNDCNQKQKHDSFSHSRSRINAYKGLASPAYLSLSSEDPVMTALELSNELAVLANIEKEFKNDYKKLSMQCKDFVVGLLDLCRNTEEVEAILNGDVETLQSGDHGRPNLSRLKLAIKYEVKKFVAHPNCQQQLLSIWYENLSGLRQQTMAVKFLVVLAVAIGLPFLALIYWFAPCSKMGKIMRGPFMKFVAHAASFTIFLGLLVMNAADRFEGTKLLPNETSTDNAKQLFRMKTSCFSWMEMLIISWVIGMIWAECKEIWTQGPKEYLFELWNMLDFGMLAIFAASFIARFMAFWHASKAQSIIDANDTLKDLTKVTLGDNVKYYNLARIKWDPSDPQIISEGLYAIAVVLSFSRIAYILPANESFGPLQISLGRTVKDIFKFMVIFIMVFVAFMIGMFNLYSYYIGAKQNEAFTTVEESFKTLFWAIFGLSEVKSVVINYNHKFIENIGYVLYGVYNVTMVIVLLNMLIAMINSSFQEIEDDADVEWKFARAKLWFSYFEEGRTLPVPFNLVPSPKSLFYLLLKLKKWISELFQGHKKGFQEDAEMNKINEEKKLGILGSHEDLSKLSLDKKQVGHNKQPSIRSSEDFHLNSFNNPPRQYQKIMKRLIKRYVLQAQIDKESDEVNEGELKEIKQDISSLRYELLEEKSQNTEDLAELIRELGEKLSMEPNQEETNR
Assay: TRPC6 calcium flux assay (FLIPR, OAG-stimulated calcium influx)
Assay type: cell-based
Settings: HEK293 cells stably transfected with human TRPC6, read-out: hTRPC6 Potency
Outline: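 IC50 derived by plotting background-corrected peak fluorescence (180 s window, normalized to OAG-triggered signal vs buffer) against dose. Stable human TRPC6 HEK293 line was dye-loaded, exposed to compound 25 min, then challenged with 50 uM final OAG in 2 mM Ca2+ HEPES buffer pH 7.2, 0.5% DMSO.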

SMILES	IC50
CN[C@H]1CCCN(c2nc3ccccc3n2[C@H](C)c2ccc(C#N)cn2)C1 [Example 255, 6-((1R)-1-(2-((3S)-3-(methylamino)-1-piperidinyl)-1H-benzimidazol-1-yl)ethyl)-3-pyridinecarbonitrile]	101 nM
N[C@@H]1CN(c2nc3cc(F)c(F)cc3n2CC(=O)N2CC3CC2CO3)CC[C@H]1F (stereo partly drawn) [Example 619, 2-(2-((3R,4R)-3-amino-4-fluoropiperidin-1-yl)-5,6-difluoro-1H-benzo[d]imidazol-1-yl)-1-(2-oxa-5-azabicyclo[2.2.1]heptan-5-yl)ethanone]	57.4 nM
CN(C)C(=O)C1CCCN(C(=O)Cn2c(N3CC[C@@H](F)[C@H](N)C3)nc3cc(F)c(F)cc32)C1 (stereo partly drawn) [Example 657, 1-(2-(2-((3R,4R)-3-amino-4-fluoropiperidin-1-yl)-5,6-difluoro-1H-benzo[d]imidazol-1-yl)acetyl)-N,N-dimethylpiperidine-3-carboxamide]	> 3750 nM
N#Cc1ccc(Cn2c(N3CC[C@@H](F)[C@H](N)C3)nc3ccc(C#N)cc32)cc1 [Example 158, 2-((3R,4R)-3-amino-4-fluoro-1-piperidinyl)-1-(4-cyanobenzyl)-1H-benzimidazole-6-carbonitrile]	4.71 nM
C[C@H](c1ccc(C(F)(F)F)cc1)n1c(N2CC[C@@H](F)[C@H](N)C2)nc2cc(F)c(F)cc21 [Example 336, (3R,4R)-1-(5,6-difluoro-1-((1R)-1-(4-(trifluoromethyl)phenyl)ethyl)-1H-benzimidazol-2-yl)-4-fluoro-3-piperidinamine]	> 3750 nM
N#Cc1ccc(Cn2c(N3CCC[C@H](N)C3)nc3cc(F)ccc32)nc1 [Example 46, (S)-6-((2-(3-aminopiperidin-1-yl)-5-fluoro-1H-benzo[d]imidazol-1-yl)methyl)nicotinonitrile hydrochloride]	1.78 nM
N#Cc1ccc(Cn2c(N3CC[C@@H](F)[C@H](N)C3)nc3c(C(F)(F)F)cccc32)nc1 [Example 90, 6-((2-((3R,4R)-3-amino-4-fluoropiperidin-1-yl)-4-(trifluoromethyl)-1H-benzo[d]imidazol-1-yl)methyl)nicotinonitrile]	68 nM
N[C@@H]1CN(c2nc3cc(F)c(F)cc3n2Cc2cc(Cl)ccc2Cl)CC[C@H]1F [Example 343, (3R,4R)-1-(1-(2,5-dichlorobenzyl)-5,6-difluoro-1H-benzimidazol-2-yl)-4-fluoro-3-piperidinamine]	804 nM
COc1cnc(Cn2c(N3CC[C@@H](F)[C@H](N)C3)nc3ccc(C#N)cc32)nc1 [Example 242, 2-((3R,4R)-3-amino-4-fluoropiperidin-1-yl)-1-((5-methoxypyrimidin-2-yl)methyl)-1H-benzo[d]imidazole-6-carbonitrile hydrochloride]	73.5 nM
CCCN(C)C(=O)Cn1c(N2CC[C@@H](F)[C@H](N)C2)nc2cc(F)c(F)cc21 [Example 616, 2-(2-((3R,4R)-3-amino-4-fluoropiperidin-1-yl)-5,6-difluoro-1H-benzo[d]imidazol-1-yl)-N-methyl-N-propylacetamide]	32.3 nM
CN[C@@H]1CN(c2nc3cc(C#N)ccc3n2Cc2ncc(Cl)cn2)CC[C@H]1F [Example 284, 1-((5-chloro-2-pyrimidinyl)methyl)-2-((3R,4R)-4-fluoro-3-(methylamino)-1-piperidinyl)-1H-benzimidazole-5-carbonitrile]	223 nM
CC1CCN(C(=O)Cn2c(N3CC[C@@H](F)[C@H](N)C3)nc3cc(F)c(F)cc32)CC1 [Example 516, 2-(2-((3R,4R)-3-amino-4-fluoropiperidin-1-yl)-5,6-difluoro-1H-benzo[d]imidazol-1-yl)-1-(4-methylpiperidin-1-yl)ethan-1-one]	197 nM
CN(C)C(=O)Cn1c(N2CC[C@@H](F)[C@H](N)C2)nc2ccc(C(F)(F)F)cc21 [Example 563, 2-(2-((3R,4R)-3-amino-4-fluoropiperidin-1-yl)-6-(trifluoromethyl)-1H-benzo[d]imidazol-1-yl)-N,N-dimethylacetamide]	21.6 nM
N#Cc1ccc(Cn2c(N3CCC[C@H](N)C3)nc3cc(Cl)ccc32)nc1 [Example 2, (S)-6-((2-(3-aminopiperidin-1-yl)-5-chloro-1H-benzo[d]imidazol-1-yl)methyl)nicotinonitrile]	3.2 nM
N#Cc1ccc(Cn2c(N3CCC[C@H](N)C3)nc3c(Cl)cccc32)cc1 [Example 418, (S)-4-((2-(3-aminopiperidin-1-yl)-4-chloro-1H-benzo[d]imidazol-1-yl)methyl)benzonitrile 2,2,2-trifluoroacetate]	0.584 nM
CS(=O)(=O)N1CCN(C(=O)Cn2c(N3CC[C@@H](F)[C@H](N)C3)nc3cc(F)c(F)cc32)CC1 [Example 649, 2-(2-((3R,4R)-3-amino-4-fluoropiperidin-1-yl)-5,6-difluoro-1H-benzo[d]imidazol-1-yl)-1-(4-(methylsulfonyl)piperazin-1-yl)ethanone]	> 3750 nM
N#Cc1ccc(Cn2c(N3CCC(F)(F)[C@H](N)C3)nc3ccc(C#N)cc32)nc1 [Example 55, (R)-2-(3-amino-4,4-difluoropiperidin-1-yl)-1-((5-cyanopyridin-2-yl)methyl)-1H-benzo[d]imidazole-6-carbonitrile]	3.97 nM
N[C@@H]1CN(c2nc3cc(F)cc(F)c3n2Cc2nnc(C(F)F)s2)CC[C@H]1F [Example 598, (3R,4R)-1-(1-((5-(difluoromethyl)-1,3,4-thiadiazol-2-yl)methyl)-5,7-difluoro-1H-benzo[d]imidazol-2-yl)-4-fluoropiperidin-3-amine]	> 3750 nM
CN[C@@H]1CCCN(c2nc3ccccc3n2Cc2ccc(C#N)cn2)C1 [Example 117, 6-((2-((3R)-3-(methylamino)-1-piperidinyl)-1H-benzimidazol-1-yl)methyl)-3-pyridinecarbonitrile]	> 3750 nM
N#Cc1ccc(Cn2c(N3CCC(F)(F)[C@H](N)C3)nc3cc(F)ccc32)nc1 [Example 71, (R)-6-((2-(3-amino-4,4-difluoropiperidin-1-yl)-5-fluoro-1H-benzo[d]imidazol-1-yl)methyl)nicotinonitrile hydrochloride]	5.62 nM
N#Cc1ccc2c(c1)CC[C@@H]2n1c(N2CC[C@@H](F)[C@H](N)C2)nc2ccccc21 [Example 232, (S)-1-(2-((3R,4R)-3-amino-4-fluoropiperidin-1-yl)-1H-benzo[d]imidazol-1-yl)-2,3-dihydro-1H-indene-5-carbonitrile hydrochloride]	2.16 nM
CN(CC(F)(F)F)C(=O)Cn1c(N2CC[C@@H](F)[C@H](N)C2)nc2cc(F)c(F)cc21 (single isomer, unassigned) [Example 635]	304 nM
C[C@H](c1ccc(C#N)cn1)n1c(N2CC[C@@H]3OCCN[C@H]3C2)nc2c(F)cc(F)cc21 [Example 268, 6-((1R)-1-(4,6-difluoro-2-((4aS,8aS)-hexahydro-2H-pyrido[4,3-b][1,4]oxazin-6(5H)-yl)-1H-benzimidazol-1-yl)ethyl)-3-pyridinecarbonitrile]	> 50000 nM
C[C@H](c1ccc(Cl)cn1)n1c(N2CC[C@@H](F)[C@H](N)C2)nc2cc(Cl)ccc21 [Example 219, (3R,4R)-1-(5-chloro-1-((R)-1-(5-chloropyridin-2-yl)ethyl)-1H-benzo[d]imidazol-2-yl)-4-fluoropiperidin-3-amine hydrochloride]	15.9 nM
